Data set [1] concerns differentiated SGBS adipocytes. The experiment in a line: Isoproterenol-stimulated lipolysis in differentiated SGBS adipocytes. In kind it is cell-based. As to conditions: Homo sapiens, 2 h pretreatment, 1 μM isoproterenol 1 h. The procedure: Human differentiated SGBS adipocytes were pretreated with DMSO or ATGL inhibitors for 2 h. Subsequently, lipolysis was stimulated with 1 μM Isoproterenol for 1 h and fatty acid release was determined from media via NEFA Reagent (Wako Diagnostics). Samples were measured in triplicates.
Human differentiated SGBS adipocytes were pretreated with DMSO or ATGL inhibitors for 2 h. Subsequently, lipolysis was stimulated with 1 μM Isoproterenol for 1 h and glycerol release was determined from media via Free glycerol reagent (Sigma Aldrich). Samples were measured in triplicates.

For the next data set, the target named is T1, human ATGL (Homo sapiens, UniProt Q96AD5).
T1 construct: made in house; host or cells: Expi cells (lysate, not purified)
T1 sequence (Q96AD5 1-504): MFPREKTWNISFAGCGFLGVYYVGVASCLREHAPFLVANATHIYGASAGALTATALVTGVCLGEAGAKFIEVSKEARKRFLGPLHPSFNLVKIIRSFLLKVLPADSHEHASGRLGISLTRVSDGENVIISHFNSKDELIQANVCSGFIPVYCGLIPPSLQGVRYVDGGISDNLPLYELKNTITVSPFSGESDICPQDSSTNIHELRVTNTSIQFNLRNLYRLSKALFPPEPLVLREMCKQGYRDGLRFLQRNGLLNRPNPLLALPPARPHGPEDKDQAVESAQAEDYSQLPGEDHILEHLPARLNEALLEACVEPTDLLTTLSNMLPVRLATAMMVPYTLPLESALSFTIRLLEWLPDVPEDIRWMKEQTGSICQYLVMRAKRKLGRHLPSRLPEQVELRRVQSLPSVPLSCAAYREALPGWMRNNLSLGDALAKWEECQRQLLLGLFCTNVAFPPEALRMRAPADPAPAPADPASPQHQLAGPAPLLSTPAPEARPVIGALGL
Kind of data set: Ki determination, human ATGL lysates with increasing substrate concentrations. In kind it is biochemical. The settings on record: non-linear regression. On the procedure: For determination of Ki values, lysates from Expi cells overexpressing human ATGL were incubated with recombinant purified ATGL co-activator CGI-58 and ATGL inhibitors at a single concentration dependent on the previously determined IC50. Increasing concentrations of substrate containing radiolabeled triolein were added and liberated FA were extracted and quantified by liquid scintillation. Inhibitors were dissolved in DMSO which was used as control. Ki was determined via non-linear regression analysis. Samples were measured in triplicates.

Data set [2] concerns differentiated hMADS adipocytes. The experiment in a line: Isoproterenol-stimulated lipolysis in differentiated hMADS adipocytes. As to conditions: Homo sapiens, Adipocyte, 2 h pretreatment, 1 μM isoproterenol 1 h. In kind it is cell-based. The procedure: Human differentiated hMADS adipocytes were pretreated with DMSO or ATGL inhibitors for 2 h. Subsequently, lipolysis was stimulated with 1 μM Isoproterenol for 1 h and fatty acid release was determined from media via NEFA Reagent (Wako Diagnostics). Samples were measured in triplicates.
Human differentiated hMADS adipocytes were pretreated with DMSO or ATGL inhibitors for 2 h. Subsequently, lipolysis was stimulated with 1 μM Isoproterenol for 1 h and glycerol release was determined from media via Free glycerol reagent (Sigma Aldrich). Samples were measured in triplicates.

The next data set deals with HepG2 cells. The experiment in a line: Toxicity screening (LDH) in HepG2 cells. As to conditions: 24 h treatment, LDH release. In kind it is cell-based, human. On the procedure:
HepG2 cells were seeded in 96 well plates and at 50% confluency treated with DMSO (0.5% final conc.) or ATGL Inhibitors for 24 h in DMEM+P/S+3% heat inactivated FCS (3 h at 62° C.). Subsequently, LDH activity of 50 μl medium was determined via the Roche LDH Kit. Samples measured in triplicates.
(Release of lactate dehydrogenase indicates damage to the cell membrane.)

Data set [3] deals with differentiated 3T3-L1 adipocytes. Kind of data set: Isoproterenol-stimulated lipolysis in differentiated 3T3-L1 adipocytes. In kind it is cell-based. As to conditions: Mus musculus, 2 h pretreatment. The procedure:
Mouse differentiated 3T3-L1 adipocytes were pretreated with DMSO or ATGL inhibitors for 2 h. Subsequently, lipolysis was stimulated with 1 μM Isoproterenol for 1 h and fatty acid release was determined from media via NEFA Reagent (Wako Diagnostics). Samples were measured in triplicates.
Mouse differentiated 3T3-L1 adipocytes were pretreated with DMSO or ATGL inhibitors for 2 h. Subsequently, lipolysis was stimulated with 1 μM Isoproterenol for […] and glycerol release was determined from media via Free glycerol reagent (Sigma Aldrich). Samples were measured in triplicates.

The mark [4] stands for this setting: fatty acid release, read-out: IC50 SGBS FA release.
The mark [5] stands for this setting: glycerol release, read-out: IC50 SGBS glycerol release.
Setting [6] is: 1 μM isoproterenol 1 h, fatty acid release, read-out: IC50 3T3 FA release.
[7] abbreviates: 1 μM isoproterenol, glycerol release, read-out: IC50 3T3 glycerol release.

This is an account of results in patent publication US20220289698A1, “INHIBITORS OF HUMAN ATGL” (Karl-Franzens-Universität Graz, priority 2019, published 2022).

SMILES strings stand for the structures. Like-named read-outs stand apart in the source and are kept apart here.

The term IC50 denotes the concentration that gives 50% inhibition. One may read the Ki as a dissociation constant, usually derived from enzyme kinetics or from competition with a known ligand. The low end stands for tighter binding, the high end for weaker binding. A word on the melting point: it is the temperature, or range, at which the solid turns liquid. Consider `CCOc1ccc(-c2cc(OC)cc(C(=O)OC(C)C)n2)cc1` [Example 35], for which the melting point lay in the range of 79 to 81 °C. In data set [1] (setting [4]), the 50% inhibitory concentration (IC50) stood at 1 µM. Also, the IC50 in data set [1] (setting [5]) came out at 2 µM. This compound also came in with a Ki on human ATGL of 0.5 µM.
At human ATGL, `CCOc1ccc(-c2nc(C(=O)OCc3cccs3)cs2)cc1` [Example 152, Thiophen-2-ylmethyl 2-(4-ethoxyphenyl)thiazole-4-carboxylate] yielded an inhibitory constant (Ki) of 8.2 µM. Moreover, the IC50 was determined as 12 µM in data set [2] (fatty acid release, read-out: IC50 hMADS FA release) and 10 µM in data set [2] (glycerol release, read-out: IC50 hMADS glycerol release). In addition, the “Tox HepG2 (LDH) seen from” value in the data set on HepG2 cells came out at 200 µM.
In turn, `CCOc1ccc(-c2cccc(C(=O)OCc3cccs3)n2)cc1` [Example 189, Thiophen-2-ylmethyl 6-(4-ethoxyphenyl)picolinate] yielded a melting point of 93 to 94 °C.
`CCOc1ccc(-c2cccc(C(=O)OCc3ccco3)n2)cc1` [Example 190, Furan-2-ylmethyl 6-(4-ethoxyphenyl)picolinate] gave a melting point of 76 to 80 °C. The IC50 in data set [1] (setting [4]) amounted to 12 µM. The half-maximal inhibitory concentration (IC50) in data set [1] (setting [5]) turned out to be 25 µM. Also, in data set [3] (setting [6]), the IC50 amounted to 6 µM. Also, in data set [3] (setting [7]), the half-maximal inhibitory concentration (IC50) amounted to 25 µM.
On to `COc1cc(C(=O)OC(C)C)nc(-c2ccc(OC(C)C)cc2)c1` [Example 201, Isopropyl 6-(4-isopropoxyphenyl)-4-methoxypicolinate], for which the melting point was 70 to 71 °C.
As to `CC#CCOC(=O)c1csc(-c2ccc(OCC)cc2)n1` [Example 209, But-2-yn-1-yl 2-(4-ethoxyphenyl)thiazole-4-carboxylate], the “Tox HepG2 (LDH) seen from” value in the data set with HepG2 cells was 200 µM.
`C#C[C@H](C)OC(=O)c1csc(-c2ccc(OCC)cc2)n1` [Example 210, (S)-But-3-yn-2-yl 2-(4-ethoxyphenyl)thiazole-4-carboxylate]: the 50% inhibitory concentration (IC50) amounted to 0.6 µM in data set [1] (setting [4]) and 1 µM in data set [1] (setting [5]).
Regarding `C#C[C@@H](C)OC(=O)c1csc(-c2ccc(OCC)cc2)n1` [Example 211, (R)-But-3-yn-2-yl 2-(4-ethoxyphenyl)thiazole-4-carboxylate], the IC50 in data set [1] (setting [4]) was determined as 0.9 µM; in data set [1] (setting [5]), 0.9 µM; in data set [3] (setting [6]), 4 µM; in data set [3] (setting [7]), 20 µM.
Regarding `CCOc1ccc(-c2nc(C(=O)OCc3ccsc3)cs2)cc1` [Example 215, Thiophen-3-ylmethyl 2-(4-ethoxyphenyl)thiazole-4-carboxylate], the concentration for half-maximal inhibition (IC50) in data set [1] (setting [4]) stood at 3 µM; in data set [1] (setting [5]), 4 µM; in data set [3] (setting [6]), 6 µM; in data set [3] (setting [7]), 15 µM.
With `CCOc1ccc(-c2nc(C(=O)OCc3ccoc3)cs2)cc1` [Example 216, Furan-3-ylmethyl 2-(4-ethoxyphenyl)thiazole-4-carboxylate], the IC50 in data set [1] (setting [4]) amounted to 0.8 µM; in data set [1] (setting [5]) it was 1 µM; in data set [3] (setting [6]) it was 10 µM; in data set [3] (setting [7]), 25 µM.
